This assay has as its target T1, ProE (Pseudomonas aeruginosa, UniProt Q9HTQ9).
T1 construct: gene PA5295
Kind of assay: surface plasmon resonance. In kind it is binding.

This is an account of results in PMC11852716, “c-di-GMP phosphodiesterase ProE interacts with quorum sensing protein PqsE to promote pyocyanin production in Pseudomonas aeruginosa” (mSphere, 2025).

T1 sequence (Q9HTQ9 entry or part of it): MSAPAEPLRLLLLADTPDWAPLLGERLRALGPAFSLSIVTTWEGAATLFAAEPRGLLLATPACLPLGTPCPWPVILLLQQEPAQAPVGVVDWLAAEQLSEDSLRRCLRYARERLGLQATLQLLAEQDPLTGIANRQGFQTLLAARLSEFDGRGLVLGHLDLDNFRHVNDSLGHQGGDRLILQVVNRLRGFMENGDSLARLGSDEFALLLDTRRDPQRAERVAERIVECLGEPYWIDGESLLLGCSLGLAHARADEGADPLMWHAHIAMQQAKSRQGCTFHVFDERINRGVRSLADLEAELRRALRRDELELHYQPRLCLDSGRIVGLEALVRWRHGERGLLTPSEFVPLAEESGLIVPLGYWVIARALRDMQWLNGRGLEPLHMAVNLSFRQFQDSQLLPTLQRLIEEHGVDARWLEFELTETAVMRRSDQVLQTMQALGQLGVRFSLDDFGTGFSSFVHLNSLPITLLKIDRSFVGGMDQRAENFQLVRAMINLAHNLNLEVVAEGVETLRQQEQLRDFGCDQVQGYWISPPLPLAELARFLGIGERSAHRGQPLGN

`Nc1nc2c(ncn2[C@@H]2O[C@@H]3CO[P@](=O)(O)O[C@H]4[C@@H](O)[C@H](n5cnc6c(=O)[nH]c(N)nc65)O[C@@H]4CO[P@](=O)(O)O[C@H]3[C@H]2O)c(=O)[nH]1` [c-di-GMP] showed a Kd of 2720 nM.

As usually defined, the Kd is the constant that tells how readily two partners part at equilibrium. Low values mean tighter binding, high ones weaker binding.
